From ChEMBL document CHEMBL5046271, “Design, Synthesis, and Biological Evaluation of 2-Formyl Tetrahydronaphthyridine Urea Derivatives as New Selective Covalently Reversible FGFR4 Inhibitors” (J Med Chem, 2022)
pIC50: −log10 of the molar value.

Legend:
[1] = biological target: Fibroblast growth factor receptor 1 (Homo sapiens, UniProt P11362); assay: Inhibition of FGFR1 (unknown origin) using Tyr 04 peptide substrate measured after 2 hrs by FRET assay
[2] = biological target: Fibroblast growth factor receptor 2 (Homo sapiens, UniProt P21802); assay: Inhibition of FGFR2 (unknown origin) using Tyr 04 peptide substrate measured after 2 hrs by FRET assay
Fibroblast growth factor receptor 2, sequence (P21802 whole entry): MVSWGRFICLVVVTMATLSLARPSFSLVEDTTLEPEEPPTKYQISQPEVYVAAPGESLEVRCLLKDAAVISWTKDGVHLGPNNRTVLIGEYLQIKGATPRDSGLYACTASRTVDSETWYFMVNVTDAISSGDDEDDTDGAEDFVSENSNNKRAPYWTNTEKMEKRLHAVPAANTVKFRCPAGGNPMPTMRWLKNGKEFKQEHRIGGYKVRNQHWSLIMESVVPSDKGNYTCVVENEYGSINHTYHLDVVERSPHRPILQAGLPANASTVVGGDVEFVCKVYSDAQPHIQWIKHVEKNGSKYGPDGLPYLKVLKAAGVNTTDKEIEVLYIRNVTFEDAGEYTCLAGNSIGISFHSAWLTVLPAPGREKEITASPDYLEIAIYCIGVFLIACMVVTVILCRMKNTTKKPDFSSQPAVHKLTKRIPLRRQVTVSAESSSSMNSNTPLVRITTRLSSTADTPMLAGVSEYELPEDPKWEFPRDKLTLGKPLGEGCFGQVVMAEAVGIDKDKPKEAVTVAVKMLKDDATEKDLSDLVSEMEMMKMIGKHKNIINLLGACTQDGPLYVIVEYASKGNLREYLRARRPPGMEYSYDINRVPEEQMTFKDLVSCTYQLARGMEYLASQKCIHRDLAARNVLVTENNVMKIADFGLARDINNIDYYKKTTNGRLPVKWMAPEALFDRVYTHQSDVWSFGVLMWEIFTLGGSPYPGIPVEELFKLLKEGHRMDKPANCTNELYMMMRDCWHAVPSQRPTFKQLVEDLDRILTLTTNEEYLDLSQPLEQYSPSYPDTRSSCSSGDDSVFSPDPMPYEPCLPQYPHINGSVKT

[3] = biological target: Fibroblast growth factor receptor 3 (Homo sapiens, UniProt P22607); assay: Inhibition of FGFR3 (unknown origin) using Tyr 04 peptide substrate measured after 2 hrs by FRET assay
Fibroblast growth factor receptor 3, sequence (P22607 whole entry): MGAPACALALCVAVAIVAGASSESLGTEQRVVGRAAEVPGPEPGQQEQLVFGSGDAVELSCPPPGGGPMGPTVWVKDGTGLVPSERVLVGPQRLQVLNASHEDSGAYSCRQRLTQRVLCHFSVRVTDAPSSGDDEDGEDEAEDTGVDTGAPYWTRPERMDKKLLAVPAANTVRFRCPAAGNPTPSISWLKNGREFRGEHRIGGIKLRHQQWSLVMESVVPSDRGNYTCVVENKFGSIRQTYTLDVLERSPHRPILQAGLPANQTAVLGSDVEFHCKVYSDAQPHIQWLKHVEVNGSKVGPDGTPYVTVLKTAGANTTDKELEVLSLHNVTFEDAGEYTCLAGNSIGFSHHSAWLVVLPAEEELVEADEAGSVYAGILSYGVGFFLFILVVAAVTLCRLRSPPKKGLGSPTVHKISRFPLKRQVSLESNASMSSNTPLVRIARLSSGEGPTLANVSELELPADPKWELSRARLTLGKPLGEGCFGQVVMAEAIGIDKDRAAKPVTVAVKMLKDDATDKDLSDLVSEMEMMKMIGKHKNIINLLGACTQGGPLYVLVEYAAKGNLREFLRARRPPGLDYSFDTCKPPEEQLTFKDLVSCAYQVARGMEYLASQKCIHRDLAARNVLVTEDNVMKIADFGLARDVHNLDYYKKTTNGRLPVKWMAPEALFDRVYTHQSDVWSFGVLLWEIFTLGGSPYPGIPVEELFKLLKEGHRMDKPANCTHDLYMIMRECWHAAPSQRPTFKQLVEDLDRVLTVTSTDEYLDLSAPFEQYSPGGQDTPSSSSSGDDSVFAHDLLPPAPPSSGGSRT

Huh-7 = assay: Cytotoxicity against human Huh-7 cells harboring FGF19/FGFR4 assessed as inhibition of cell growth
Hep 3B2 = assay: Cytotoxicity against human Hep 3B2.1-7 cells harboring FGF19/FGFR4 assessed as inhibition of cell growth; settings: Hep3B
MDA-MB-453 = assay: Cytotoxicity against human MDA-MB-453 cells harboring FGF19/FGFR4 assessed as inhibition of cell growth
NCI-H1581 = assay: Cytotoxicity against human NCI-H1581 cells harboring FGF19/FGFR4 assessed as inhibition of cell growth

Fibroblast growth factor receptor 1, sequence (P11362 whole entry): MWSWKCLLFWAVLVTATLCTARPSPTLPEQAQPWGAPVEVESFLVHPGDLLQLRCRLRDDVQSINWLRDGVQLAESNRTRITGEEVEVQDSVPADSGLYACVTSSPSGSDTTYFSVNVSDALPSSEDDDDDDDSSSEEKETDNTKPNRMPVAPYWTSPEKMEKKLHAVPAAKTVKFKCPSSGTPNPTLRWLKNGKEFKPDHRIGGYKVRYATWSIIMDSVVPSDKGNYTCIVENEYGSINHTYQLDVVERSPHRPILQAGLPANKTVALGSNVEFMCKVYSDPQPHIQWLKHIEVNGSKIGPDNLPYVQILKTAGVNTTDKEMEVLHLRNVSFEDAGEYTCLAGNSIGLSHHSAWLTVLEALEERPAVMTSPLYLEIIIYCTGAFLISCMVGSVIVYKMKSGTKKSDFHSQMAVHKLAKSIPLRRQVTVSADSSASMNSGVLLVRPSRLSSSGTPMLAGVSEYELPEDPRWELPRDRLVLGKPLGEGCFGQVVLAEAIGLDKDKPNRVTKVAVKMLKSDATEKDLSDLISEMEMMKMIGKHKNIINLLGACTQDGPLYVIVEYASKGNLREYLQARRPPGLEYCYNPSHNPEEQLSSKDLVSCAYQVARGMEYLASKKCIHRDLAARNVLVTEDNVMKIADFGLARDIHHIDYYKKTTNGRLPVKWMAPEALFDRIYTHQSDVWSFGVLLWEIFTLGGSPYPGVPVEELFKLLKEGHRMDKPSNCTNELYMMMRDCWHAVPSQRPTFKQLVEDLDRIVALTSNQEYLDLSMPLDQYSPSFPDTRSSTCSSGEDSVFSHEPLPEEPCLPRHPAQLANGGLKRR

| Structure (SMILES) | pIC50 [1] | pIC50 [2] | pIC50 [3] | pIC50 (Huh-7) | pIC50 (Hep 3B2) | pIC50 (MDA-MB-453) | pIC50 (NCI-H1581) |
| --- | --- | --- | --- | --- | --- | --- | --- |
| CC(C)Oc1cc(NC(=O)N2CCCc3cc(CN4CCN(C)CC4=O)c(C=O)nc32)ncc1C#Cc1ccccn1 | < 5.00 | < 5.00 | < 5.00 | 8.20 | 6.18 | 5.88 | < 5.52 |
| COc1cc(C#Cc2cnc(NC(=O)N3CCCc4ccc(C=O)nc43)cc2OC(C)C)cc(OC)c1 | < 5.00 | < 5.00 | < 5.00 |  |  |  |  |
| O=Cc1ccc2c(n1)N(C(=O)Nc1cc(NC3CCCC3)c(C#Cc3ccccn3)cn1)CCC2 | < 5.00 | < 5.00 | < 5.00 |  |  |  |  |
| COCCNc1cc(NC(=O)N2CCCc3ccc(C=O)nc32)ncc1C#N | < 5.00 | < 5.00 | < 5.00 |  |  |  |  |
| CC(C)Oc1cc(NC(=O)N2CCCc3ccc(C=O)nc32)ncc1C#Cc1cnccn1 | < 5.00 | < 5.00 | < 5.00 |  |  |  |  |
| COc1cc(CCc2cnc(NC(=O)N3CCCc4ccc(C=O)nc43)cc2OC(C)C)cc(OC)c1 | < 5.00 | < 5.00 | < 5.00 |  |  |  |  |
| O=Cc1ccc2c(n1)N(C(=O)Nc1cc(F)c(C#Cc3ccccn3)cn1)CCC2 | < 5.00 | < 5.00 | < 5.00 |  |  |  |  |
| CC(C)Oc1cc(NC(=O)N2CCCc3ccc(C=O)nc32)ncc1C#Cc1ccccc1 | < 5.00 | < 5.00 | < 5.00 |  |  |  |  |
| COCCNc1cc(NC(=O)N2CCCc3cc(CN4CCN(C)CC4=O)c(C=O)nc32)ncc1C#N [FGF401] |  |  |  | 8.05 | 6.68 | 6.04 | < 5.52 |
| CC(C)Oc1cc(NC(=O)N2CCCc3ccc(C=O)nc32)ncc1C#Cc1ccccn1 | < 5.00 | < 5.00 | < 5.00 |  |  |  |  |
| C=CC(=O)Nc1cccc(C)c1Nc1ncc2cc(-c3c(Cl)c(OC)cc(OC)c3Cl)ccc2n1 | < 5.00 | < 5.00 | < 5.00 |  | 6.26 | 6.92 | < 4.36 |
| COc1cc(C#Cc2cnc(NC(=O)N3CCCc4cc(CN5CCN(C)CC5=O)c(C=O)nc43)cc2OC(C)C)cc(OC)c1 | < 5.00 | < 5.00 | < 5.00 | 7.18 | 5.87 | 6.33 | < 5.52 |
| COc1cc(OC)cc(-c2cnc(NC(=O)N3CCCc4ccc(C=O)nc43)cc2OC(C)C)c1 | < 5.00 | < 5.00 | < 5.00 |  |  |  |  |
| COc1cc(CCc2cnc(NC(=O)N3CCCc4cc(CN5CCN(C)CC5=O)c(C=O)nc43)cc2OC(C)C)cc(OC)c1 | < 5.00 | < 5.00 | < 5.00 | 7.83 | 5.84 | 5.65 | < 5.52 |
| CC(C)Oc1cc(NC(=O)N2CCCc3ccc(C=O)nc32)ncc1C#Cc1cncn1C | < 5.00 | < 5.00 | < 5.00 |  |  |  |  |
| COc1cc(OC)c(Cl)c(C#Cc2cnc(NC(=O)N3CCCc4ccc(C=O)nc43)cc2OC(C)C)c1Cl | < 5.00 | < 5.00 | < 5.00 |  |  |  |  |
| O=Cc1ccc2c(n1)N(C(=O)Nc1cc(NC3CC3)c(C#Cc3ccccn3)cn1)CCC2 | < 5.00 | < 5.00 | < 5.00 |  |  |  |  |
| CC(C)Oc1cc(NC(=O)N2CCCc3ccc(C=O)nc32)ncc1C#Cc1ccc(C#N)cc1 | < 5.00 | < 5.00 | < 5.00 |  |  |  |  |
| CC(C)Oc1cc(NC(=O)N2CCCc3ccc(C=O)nc32)ncc1C#Cc1cncnc1 | < 5.00 | < 5.00 | < 5.00 |  |  |  |  |
| COCCOc1cc(NC(=O)N2CCCc3ccc(C=O)nc32)ncc1C#Cc1ccccn1 | < 5.00 | < 5.00 | < 5.00 |  |  |  |  |
| COc1cccc(CCc2cnc(NC(=O)N3CCCc4ccc(C=O)nc43)cc2OC(C)C)c1 | < 5.00 | < 5.00 | < 5.00 |  |  |  |  |
| CC(C)Oc1cc(NC(=O)N2CCCc3ccc(C=O)nc32)ncc1C#Cc1cccc(C#N)c1 | < 5.00 | < 5.00 | < 5.00 |  |  |  |  |

The next lines start with results.

| pIC50 [1] | pIC50 [2] | pIC50 [3] | Structure (SMILES) | pIC50 (Huh-7) | pIC50 (Hep 3B2) | pIC50 (MDA-MB-453) | pIC50 (NCI-H1581) |
| --- | --- | --- | --- | --- | --- | --- | --- |
| < 5.00 | < 5.00 | < 5.00 | COC[C@@H](C)Nc1cc(NC(=O)N2CCCc3ccc(C=O)nc32)ncc1C#Cc1cccnc1 |  |  |  |  |
| < 5.00 | < 5.00 | < 5.00 | CC(C)Oc1cc(NC(=O)N2CCCc3ccc(C=O)nc32)ncc1C#Cc1cccnc1 |  |  |  |  |
| < 5.00 | < 5.00 | < 5.00 | COc1cccc(C#Cc2cnc(NC(=O)N3CCCc4ccc(C=O)nc43)cc2OC(C)C)c1 |  |  |  |  |
| < 5.00 | < 5.00 | < 5.00 | CC(C)CNc1cc(NC(=O)N2CCCc3ccc(C=O)nc32)ncc1C#Cc1ccccn1 |  |  |  |  |
| < 5.00 | < 5.00 | < 5.00 | COC[C@H](C)Nc1cc(NC(=O)N2CCCc3ccc(C=O)nc32)ncc1C#Cc1cccnc1 |  |  |  |  |
| < 5.00 | < 5.00 | < 5.00 | COCCNc1cc(NC(=O)N2CCCc3ccc(C=O)nc32)ncc1C#Cc1cccnc1 |  |  |  |  |
| < 5.00 | < 5.00 | < 5.00 | COCCNc1cc(NC(=O)N2CCCc3ccc(C=O)nc32)ncc1C#Cc1ccccn1 |  |  |  |  |
| < 5.00 | < 5.00 | < 5.00 | CC(C)Oc1cc(NC(=O)N2CCCc3ccc(C=O)nc32)ncc1C#Cc1ccncc1 |  |  |  |  |
| < 5.00 | < 5.00 | < 5.00 | COCCOc1cc(NC(=O)N2CCCc3ccc(C=O)nc32)ncc1C#Cc1cccnc1 |  |  |  |  |
| < 5.00 | < 5.00 | < 5.00 | O=Cc1ccc2c(n1)N(C(=O)Nc1cc(F)c(C#Cc3cccnc3)cn1)CCC2 |  |  |  |  |
